From ChEMBL document CHEMBL1201862, “PubChem BioAssay data set” (2004)
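Test compounds were applied to cells in 96-well plates for 48 hours at 5 doses. GI50: concentration for 50% inhibition of growth.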 Calls of active or inactive are those of the source. Cut-off read from the data, not from the text of the source: active = GI50 up to about 1.1 µM and inactive = higher.

What was measured:
Experiment in all cases: DTP human tumour cell line panel, 48 h
DU-145 = test system: DU-145
RXF 393 = test system: RXF 393
HCT-15 = test system: HCT-15
T47D = test system: T47D
OVCAR-3 = test system: OVCAR-3
A498 = test system: A498
BT-549 = test system: BT-549
SK-MEL-2 = test system: SK-MEL-2
MDA-MB-435 = test system: MDA-MB-435
HT-29 = test system: HT-29
MOLT-4 = test system: MOLT-4
SNB-19 = test system: SNB-19
KM-20L2 = test system: KM-20L2
UACC-62 = test system: UACC-62
HOP-62 = test system: HOP-62
HOP-92 = test system: HOP-92
NCI-H522 = test system: NCI-H522
786-0 = test system: 786-0
NCI/ADR-RES = test system: NCI/ADR-RES
SN12C = test system: SN12C

SMILES | GI50 (DU-145) | GI50 (RXF 393) | GI50 (HCT-15) | GI50 (T47D) | GI50 (OVCAR-3) | GI50 (A498) | GI50 (BT-549) | GI50 (SK-MEL-2) | GI50 (MDA-MB-435) | GI50 (HT-29) | GI50 (MOLT-4) | GI50 (SNB-19) | GI50 (KM-20L2) | GI50 (UACC-62) | GI50 (HOP-62) | GI50 (HOP-92) | GI50 (NCI-H522) | GI50 (786-0) | GI50 (NCI/ADR-RES) | GI50 (SN12C)
Cc1ccccc1C1=C/C(=C(\SS/C(C(=O)c2ccc(OCC(=O)O)c(Cl)c2Cl)=C2\C=C(c3ccccc3C)SS2)C(=O)c2ccc(OCC(=O)O)c(Cl)c2Cl)SS1 | 39.4 µM (inactive) | 22.4 µM (inactive) | 24 µM | 5.16 µM (inactive) | 16.5 µM (inactive) | 32.4 µM (inactive) | 33.3 µM (inactive) | 21.4 µM (inactive) | 36.1 µM (inactive) | 33.1 µM (inactive) | 19.9 µM (inactive) | 22.5 µM (inactive) | 37.9 µM (inactive) | 18 µM (inactive) | 51.6 µM (inactive) | 5.51 µM (inactive) | 4.09 µM (inactive) | 33.3 µM (inactive) | 63 µM (inactive) | 20.1 µM (inactive)
CC[N+]1(C)CCC(O)(/C=C/c2ccccc2)C(C(=O)/C=C/c2ccccc2)C1 (stereo not given) | 19.1 µM (inactive) | 7.62 µM (inactive) | 4.54 µM | 15.3 µM (inactive) | 9.04 µM (inactive) | 21.1 µM (inactive) | 15.7 µM (inactive) | 19.8 µM (inactive) | 12.2 µM (inactive) | 7.59 µM (inactive) | 2.13 µM (inactive) | 15.3 µM (inactive) | 18.3 µM (inactive) | 16.9 µM (inactive) | 19.6 µM (inactive) | 9.46 µM (inactive) | 1.99 µM (inactive) | 4.02 µM (inactive) | 30.6 µM (inactive) | 7.23 µM (inactive)
C[C@H]1CC[C@H](NC(=O)N(CCCl)N=O)CC1 | 82.4 µM (inactive) | 36 µM (inactive) | 40.6 µM | 29.7 µM (inactive) | 42.1 µM (inactive) | 53 µM (inactive) | 24.7 µM (inactive) | 46.5 µM (inactive) | 28.1 µM (inactive) | 51.2 µM (inactive) | 18.3 µM (inactive) | 38.7 µM (inactive) | 56.4 µM (inactive) | 14.3 µM (inactive) | 48.3 µM (inactive) | 24.4 µM (inactive) | 40 µM (inactive) | 31.6 µM (inactive) | 47.1 µM (inactive) | 40.4 µM (inactive)
O=C1[C@@H]2C3SC(c4ccccc43)[C@@H]2C(=O)N1c1ccccc1 | – | > 100 µM (inactive) | > 100 µM | – | > 100 µM (inactive) | > 100 µM (inactive) | – | > 100 µM (inactive) | – | > 100 µM (inactive) | > 100 µM (inactive) | 41.9 µM (inactive) | > 100 µM (inactive) | > 100 µM (inactive) | > 100 µM (inactive) | > 64.1 µM (inactive) | > 100 µM (inactive) | > 74 µM (inactive) | – | > 100 µM (inactive)
COc1cc(-c2nnc3n2NC=C(C(=O)O)S3)cc(OC)c1OC | – | > 100 µM (inactive) | > 54.5 µM | – | > 100 µM (inactive) | > 100 µM (inactive) | – | > 100 µM (inactive) | – | > 100 µM (inactive) | > 100 µM (inactive) | > 100 µM (inactive) | > 59.2 µM (inactive) | > 93.5 µM (inactive) | > 100 µM (inactive) | > 100 µM (inactive) | > 100 µM (inactive) | > 58.7 µM (inactive) | – | > 93.1 µM (inactive)
S=P(N1CC1)(N1CC1)N1CC1 [THIOTEPA] | 32.1 µM (inactive) | 101 µM (inactive) | 149 µM | 171 µM (inactive) | 169 µM (inactive) | 126 µM (inactive) | 175 µM (inactive) | 220 µM (inactive) | 158 µM (inactive) | 159 µM (inactive) | 7.69 µM (inactive) | 115 µM (inactive) | 175 µM (inactive) | 14.7 µM (inactive) | 31.3 µM (inactive) | 112 µM (inactive) | 101 µM (inactive) | 39.8 µM (inactive) | 79.1 µM (inactive) | 35.5 µM (inactive)
